According to patent US6528685B2 (Teva Pharmaceutical Industries, Ltd., priority 1994, dated 2003):
Counter-ions that a name gives are not always drawn.

Legend:
[1] = tested on: Mechanically dissociated Neonatal Rat Cerebellum; test: Enhancement of cell survival, neonatal rat cerebellum cultures without NMDA; type: cell-based; details: 0.005 μM; 24 hours after addition, fourth day; percentage of control cells; no NMDA
Method: The cerebellum was aseptically dissociated from 6 or 7-day old rat pups and placed in a 15 ml sterile plastic conical tube containing 3 ml of Dulbecco's modified Eagle's medium (DMEM) with a high glucose concentration ([…]) and 2 mM (v/v) L-glutamine and an antibiotic antimitotic mixture. The cerebella were then dissociated after 20-25 passages through a sterile 13 gauge, 10 cm long stainless steel needle attached to a 5 ml syringe with an inserted 45 micrometer pore nylon sieve. The dissociated cells were centrifuged at 200 g for 5 minutes. […] Cell viability was determined by the tryptan blue exclusion test.
Cells were plated at a density of 200/mm^2 on poly-L-lysine coated surfaces. Poly-L-lysine coated glass coverslips were prepared at least one hour in advance of plating by immersing sterile coverslips in sterile distilled water solution containing 15 microgram/ml poly-L-lysine, and washing in sterile water just prior to use. […] After three days in culture, the media was replaced with media containing the desired test compound. Each test compound was tested in duplicate. Toxic-dose response was determined for each compound.
Cell cultures were grown as described above but in the absence of NMDA and after 3 days a dose of test compound was added. Cell survival was monitored as described above.

rats [2] = test: Neurotoxicity in rats, positional sense test and gait stance test; details: rats p.o.; positional sense test and gait stance test
Method: (§1) Neurotoxicity of the claimed agents was also assessed in mice (i.p. administration) by the rotorod ataxia test and/or in rats (p.o. administration) by positional sense test and gait stance test. […] The term quantitating the neurotoxicity is the medial neurological toxic dose (TD50), was determined in the above tests.

rats [3] = details: rats p.o.
[4] = tested on: Mechanically dissociated Neonatal Rat Cerebellum; test: Reversal of NMDA induced cell death, neonatal rat cerebellum cultures; type: cell-based; details: for SURVIVING CELL IN CULTURE: relative to control (100%); for PERCENT PROTECTION: cell survival minus NMDA effect (30%); for EFFECTIVE PROTECTION: percent protection x 100/70
Method: The cerebellum was aseptically dissociated from 6 or 7-day old rat pups and placed in a 15 ml sterile plastic conical tube containing 3 ml of Dulbecco's modified Eagle's medium (DMEM) with a high glucose concentration ([…]) and 2 mM (v/v) L-glutamine and an antibiotic antimitotic mixture. The cerebella were then dissociated after 20-25 passages through a sterile 13 gauge, 10 cm long stainless steel needle attached to a 5 ml syringe with an inserted 45 micrometer pore nylon sieve. The dissociated cells were centrifuged at 200 g for 5 minutes. The supernatant was discarded and the cells resuspended in medium enriched with 15% (v/v) heat inactivated fetal calf serum. Cell viability was determined by the tryptan blue exclusion test.
Cells were plated at a density of 200/mm^2 on poly-L-lysine coated surfaces. Poly-L-lysine coated glass coverslips were prepared at least one hour in advance of plating by immersing sterile coverslips in sterile distilled water solution containing 15 microgram/ml poly-L-lysine, and washing in sterile water just prior to use. The plated cells were covered with enriched medium and incubated at 37° C. in an atmosphere of 5% CO2 in air and 97% humidity. After three days in culture, the media was replaced with media containing the desired test compound. Each test compound was tested in duplicate. Toxic-dose response was determined for each compound.
Four groups were run in each set of experiments;
I. Control, consisting of enriched media alone,
II. N-methyl-D-aspartate (NMDA, 1 mM for 3 hours) as the cytotoxic challenge,
III. Test compound plus NMDA, and
IV. Positive control, spermine(0.01 micromoles) plus NMDA.
Nerve cell survival was evaluated by phase contrast microscopy and tryptan blue staining after 24 hours.
Surviving cells in culture are measured relative to control (100%) as described above. Percent protection is the Cell Survival for the test compound minus the NMDA effect. Thus, maximal protection is 100% minus 30% NMDA effect i.e. 70%. The Effective Protection was calculated as the percent of the Percent Protection (X) divided by the maximal protection value (e.g. X×100/70).

mongolian gerbils = test: Global brain ischemia in gerbils; type: in vivo, mongolian gerbil; details: 3 injections, fraction of hippocampi protected from ischemia, 14 days post-ischemia
Method: Male mongolian gerbils, aged 2.5-5 months, housed 4-8 in a cage, were supplied freely with food and water and maintained at 24° C. with a 12 hour day/night cycle. […] Each artery was clamped for 5 minutes with aneurysm clips to produce global brain ischemia. The anesthesia was discontinued upon clamping. After 5 minutes the clamps were removed and the wound closed with skin clips.
For treatment, the test compound or vehicle were injected intra-peritoneally (ip) in a volume of 50 microliters of solvent per 10 g body weight. The first injection was given two minutes after clamp removal, and thereafter daily for the next 2 post-operative days (total of 3 injections).
Seven groups each of 4-8 animals were compared:
V. Ischemia—Test compound treated, one sub-group per concentration tested,
VI. Ischemia and pentobarbital (40 mg/kg) as positive control).
Analysis of neuronal damage was performed 14 days post-ischemia by counting pyramidal neurons throughout the CA1 layer of the anterior hippocampus in […] thick (paraffin) coronal brain sections stained with hematoxylin and erosin.
Percent Protection values represent the fraction of hippocampi protected from ischemia in a group of animals treated with the stated dose of compound.

mice [5] = test: Neurotoxicity in mice, rotorod ataxia test; details: mice i.p.; rotorod ataxia test
Method: as §1

mice [6] = test: Maximal electroshock (MES) model, mice; details: mice, intraperitoneal (i.p.) administration
rats [7] = test: Maximal electroshock (MES) model, rats; details: rats, oral (p.o.) administration; median effective dose
mice [8] = details: mice i.p.

SMILES: NC(=O)CN[C@H]1CCc2ccccc21 [Compound 2, (S)-N-(2-Acetamido)-1-aminoindan.HCl]
- % ENHANCED SURVIVAL [1]: 140%
- RATS TD50 (rats [2]): >500 mg/kg
- RATS scMet ED50 PI (rats [3]): >250 mg/kg
- SURVIVING CELL IN CULTURE ([4]; 0.005 μM + NMDA 1 mM 3 hours): 56%
- PERCENT PROTECTION ([4]; 0.005 μM + NMDA): 26%
- EFFECTIVE PROTECTION ([4]; 0.005 μM + NMDA): 37%
- SURVIVING CELL IN CULTURE ([4]; 0.010 μM + NMDA 1 mM 3 hours): 51%
- PERCENT PROTECTION ([4]; 0.010 μM + NMDA): 21%
- EFFECTIVE PROTECTION ([4]; 0.010 μM + NMDA): 30%
- SURVIVING CELL IN CULTURE ([4]; 0.100 μM + NMDA 1 mM 3 hours): 33%
- PERCENT PROTECTION ([4]; 0.100 μM + NMDA): 3%
- EFFECTIVE PROTECTION ([4]; 0.100 μM + NMDA): 4%
- PERCENT PROTECTION (mongolian gerbils; 0.1 mg/kg ip): 0%
- PERCENT PROTECTION (mongolian gerbils; 1.0 mg/kg ip): 50.0%
- PERCENT PROTECTION (mongolian gerbils; 10.0 mg/kg ip): 37.5%
- MICE TD50 (mice [5]): 137 mg/kg
- MICE MES ED50 (mice [6]): 39 mg/kg
- RATS MES 50 (rats [7]): 21 mg/kg
- MICE scMet ED50 PI (mice [8]): >150 mg/kg
